This is an account of results in patent US4545991A, “Difficidin and derivative antibacterials” (Merck & Co., Inc., priority 1983, dated 1985).

One assay concerns Ent. aerogenes. The assay can be described thus: MIC, in vitro agar dilution assay, aerobic bacteria (Table II). The following applies: Klebsiella aerogenes. The class given is cell-based. In general terms: In agar dilution the substance is mixed into plates at graded concentrations.
The test system of assay [1] is Ps. aeruginosa. The assay is described as above. The following applies: Pseudomonas aeruginosa. The class given is cell-based.
Another assay deals with C. difficile Fox^r. Nature of the assay: MIC, in vitro agar dilution assay, anaerobic bacteria (Table III). It counts as cell-based. Particulars: Clostridioides difficile.
The next assay relates to Sal. typhimurium. Nature of the assay: MIC, in vitro agar dilution assay, aerobic bacteria (Table II). The following applies: Salmonella enterica, 10^6 CFU per spot, read-out: MIC. It counts as cell-based.
In the next assay the test system is Prot. vulgaris. The assay is described as above. It counts as cell-based. Particulars: Proteus vulgaris, 10^6 CFU per spot, read-out: MIC.
The subject of another assay is B. fragilis Pen^r. The assay can be described thus: MIC, in vitro agar dilution assay, anaerobic bacteria (Table III). It counts as cell-based. The following applies: Bacteroides fragilis, 10^6 CFU per spot, read-out: MIC.
The test system of assay [2] is Bifidobacterium dentium Fox^r. The description is as above. Particulars: Bifidobacterium dentium. It counts as cell-based.
The subject of a further assay is E. coli. Nature of the assay: MIC, in vitro agar dilution assay, aerobic bacteria (Table II). It counts as cell-based. The following applies: Escherichia coli, 10^6 CFU per spot, read-out: MIC. From the text: (§1) Further evaluations of the antibacterial spectrum of difficidin and oxydifficidin were undertaken, especially as compared to the antibacterial spectrum of the valuable antibiotic cefoxitin, which is well known for its wide spectrum of antibacterial activity. An in vitro agar dilution assay was used, inoculum 10^6 CFU per spot. Table II below illustrates the results obtained for various aerobic bacteria, and Table III illustrates the results obtained for various anaerobic bacteria.

A further assay concerns Strep. faecalis. Described as above. It counts as cell-based. The following applies: Enterococcus faecalis, 10^6 CFU per spot, read-out: MIC.
Text: as §1

For the next assay, the system named is S. aureus. The description is as above. It counts as cell-based. The following applies: Staphylococcus aureus, 10^6 CFU per spot, read-out: MIC.
Text: as §1

The subject of another assay is C. ramosum. The assay can be described thus: MIC, in vitro agar dilution assay, anaerobic bacteria (Table III). The class given is cell-based. Particulars: Thomasclavelia ramosa, 10^6 CFU per spot, read-out: MIC.
The test system of the next assay is S. aureus Gm^R Meth^R. The assay can be described thus: MIC, in vitro agar dilution assay, aerobic bacteria (Table II). It counts as cell-based. Particulars: Staphylococcus aureus.
In the next assay the test system is K. pneumoniae Kl^+. The assay is described as above. The class given is cell-based. The following applies: Klebsiella pneumoniae, 10^6 CFU per spot, read-out: MIC.
For assay [3], the system named is Bacteriodes fragilis Metr^r, Pen^r. Nature of the assay: MIC, in vitro agar dilution assay, anaerobic bacteria (Table III). It counts as cell-based. The following applies: 10^6 CFU per spot, read-out: MIC.
The test system of a further assay is B. ovatus Pen^r. The assay is described as above. It counts as cell-based. Particulars: Bacteroides ovatus, 10^6 CFU per spot, read-out: MIC.
For another assay, the system named is Ps. aeruginosa RPL 11^+. The assay can be described thus: MIC, in vitro agar dilution assay, aerobic bacteria (Table II). Particulars: Pseudomonas aeruginosa. The class given is cell-based.
The next assay relates to E. coli TEM 2^+ DC 2. The description is as above. Particulars: Escherichia coli. The class given is cell-based.
Another assay concerns Actinomyces naeslundii. Nature of the assay: MIC, in vitro agar dilution assay, anaerobic bacteria (Table III). It counts as cell-based. The following applies: 10^6 CFU per spot, read-out: MIC.
In assay [4] the test system is Peptostreptococcus anaerobius. The assay is described as above. It counts as cell-based. The following applies: 10^6 CFU per spot, read-out: MIC.
Another assay relates to Prot. mirabilis Gm^R. Nature of the assay: MIC, in vitro agar dilution assay, aerobic bacteria (Table II). The class given is cell-based. Particulars: Proteus mirabilis, 10^6 CFU per spot, read-out: MIC.
The subject of assay [5] is Ps. aeruginosa. The assay is described as above. It counts as cell-based. Particulars: Pseudomonas aeruginosa. The source holds these as a separate data set.
Assay [6] deals with Fusobacterium mortiferum Fox^r. Nature of the assay: MIC, in vitro agar dilution assay, anaerobic bacteria (Table III). The class given is cell-based. Particulars: 10^6 CFU per spot, read-out: MIC.
In another assay the test system is E. coli DC 2. The assay can be described thus: MIC, in vitro agar dilution assay, aerobic bacteria (Table II). It counts as cell-based. The following applies: Escherichia coli, DC2.
The test system of the next assay is Prot. morganii Sm^R. Described as above. The following applies: Morganella morganii. It counts as cell-based.
Assay [7] concerns B. thetaiotaomicron Clind^r, NCCLS control strain. The assay can be described thus: MIC, in vitro agar dilution assay, anaerobic bacteria (Table III). The class given is cell-based. Particulars: Bacteroides thetaiotaomicron, 10^6 CFU per spot, read-out: MIC.
For another assay, the system named is Ent. cloacae P99^-. Nature of the assay: MIC, in vitro agar dilution assay, aerobic bacteria (Table II). It counts as cell-based. The following applies: Enterobacter cloacae.
Assay [8] relates to Clostridium perfringens NCCLS control strain. The assay can be described thus: microbe, parasite or virus in culture. The following applies: Clostridium perfringens. It counts as cell-based.
For the next assay, the system named is Veillonella alcalescens. The assay can be described thus: MIC, in vitro agar dilution assay, anaerobic bacteria (Table III). The class given is cell-based. The following applies: Veillonella parvula, 10^6 CFU per spot, read-out: MIC.
Assay [9] has as its system B. fragilis Clind^r Fox^r Tet^r. The assay is described as above. The class given is cell-based. The following applies: Bacteroides fragilis, 10^6 CFU per spot, read-out: MIC.
The test system of assay [10] is B. distasonis Pen^r Fox^r Clind^r. The description is as above. The class given is cell-based. Particulars: Parabacteroides distasonis, 10^6 CFU per spot, read-out: MIC.
In a further assay the test system is Ser. marcescens. The assay can be described thus: MIC, in vitro agar dilution assay, aerobic bacteria (Table II). It counts as cell-based. The following applies: Serratia marcescens, 10^6 CFU per spot, read-out: MIC.
The next assay deals with Eubacterium limosum. The assay can be described thus: MIC, in vitro agar dilution assay, anaerobic bacteria (Table III). Particulars: 10^6 CFU per spot, read-out: MIC. It counts as cell-based.
Assay [11] has as its system C. difficile Clind^r, Fox^r. The description is as above. The class given is cell-based. Particulars: Clostridioides difficile, 10^6 CFU per spot, read-out: MIC.
For a further assay, the system named is Propionibacterium acnes. The assay is described as above. It counts as cell-based. The following applies: Cutibacterium acnes, 10^6 CFU per spot, read-out: MIC.
For assay [12], the system named is B. distasonis Pen^r Fox^r. The description is as above. The class given is cell-based. Particulars: Parabacteroides distasonis, 10^6 CFU per spot, read-out: MIC.
The next assay deals with Ent. cloacae P99^+. Nature of the assay: MIC, in vitro agar dilution assay, aerobic bacteria (Table II). The following applies: Enterobacter cloacae. It counts as cell-based.
For the next assay, the system named is E. coli TEM 2^+. The description is as above. It counts as cell-based. Particulars: Escherichia coli.
Assay [13] deals with B. thetaiotaomicron Clind^r. The assay can be described thus: MIC, in vitro agar dilution assay, anaerobic bacteria (Table III). The class given is cell-based. Particulars: Bacteroides thetaiotaomicron, 10^6 CFU per spot, read-out: MIC.
Assay [14] relates to B. fragilis NCCLS control strain. The assay is described as above. The class given is cell-based. The following applies: Bacteroides fragilis, 10^6 CFU per spot, read-out: MIC.
Assay [15] concerns Klebsiella pneumoniae MB 4005. The assay can be described thus: standard mouse protection test, experimental systemic infection. It counts as in vivo, CD1 female mice. Particulars: Klebsiella pneumoniae, MB4005, ip, 168 h, × 2 i.p. doses (immediately after infection and 6 hours later), 7 days. As for the experimental part:
The antibacterial efficacy of difficidin and its derivatives was further determined in standard mouse protection tests. An experimental systemic infection was produced in CD1 female mice (Charles River Breeding Laboratories, Wilmington, MA) by the intraperitoneal injection of a suitably diluted broth culture of Klebsiella pneumoniae MB 4005. The test antibacterial compounds and the control drug (streptomycin) were administered parenterally (intraperitoneally) immediately after infection and again 6 hours later. At least 4 fourfold dilutions of each agent were tested. There were 5 mice at each dose level. […] Under the conditions of the test, all infected untreated mice died within 48 hours.
Mice were protected by the administration of the test antibacterial compounds or streptomycin at the median effective doses shown in Table IV below.

Broadly, the ED50 is the dose that gives a 50% effect, or the effect in half of the subjects.

Structures are written as SMILES. Converted amounts (≈) assume the structure as drawn. Read-outs that look alike come from different tables or passages of the source.

On to `CO[C@@]1(NC(=O)Cc2cccs2)C(=O)N2C(C(=O)O)=C(COC(N)=O)CS[C@@H]21` [Cefoxitin, cefoxitin, reference compound], for which the MIC is > 128 µg/mL with Ent. aerogenes; > 128 µg/mL in the assay with Ps. aeruginosa [1]; 128 µg/mL (≈ 299 µM) in the assay with C. difficile Fox^r; 8 µg/mL (≈ 18.7 µM) in the assay on Sal. typhimurium; 16 µg/mL (≈ 37.4 µM) in the assay on Prot. vulgaris; 8 µg/mL (≈ 18.7 µM) in the assay with B. fragilis Pen^r. For the same compound, the MIC in [2] is 4 µg/mL (≈ 9.36 µM); with E. coli, > 128 µg/mL; in the assay on Strep. faecalis, > 128 µg/mL; in the assay with S. aureus (first unmarked strain) it was 2 µg/mL (≈ 4.68 µM); in the assay on S. aureus (second unmarked strain) it was 2 µg/mL (≈ 4.68 µM); in the assay with C. ramosum, 4 µg/mL (≈ 9.36 µM). Moreover, the MIC in the assay on S. aureus Gm^R Meth^R is > 128 µg/mL; in the assay with K. pneumoniae Kl^+, 4 µg/mL (≈ 9.36 µM); in [3], 2 µg/mL (≈ 4.68 µM); in the assay on B. ovatus Pen^r it was 8 µg/mL (≈ 18.7 µM); with Ps. aeruginosa RPL 11^+, > 128 µg/mL; with E. coli TEM 2^+ DC 2, 1 µg/mL (≈ 2.34 µM). Also, the MIC in the assay with Actinomyces naeslundii is 0.015 µg/mL (≈ 0.0351 µM); in assay [4] it was ≤ 0.008 µg/mL; in the assay on Prot. mirabilis Gm^R it was 32 µg/mL (≈ 74.9 µM); in the assay on Ps. aeruginosa [5], > 128 µg/mL; in assay [6], 16 µg/mL (≈ 37.4 µM); against E. coli DC 2 it was 1 µg/mL (≈ 2.34 µM). In addition, the MIC against Prot. morganii Sm^R came to 16 µg/mL (≈ 37.4 µM); in assay [7], 16 µg/mL (≈ 37.4 µM); in the assay on Ent. cloacae P99^-, 16 µg/mL (≈ 37.4 µM); in [8], 0.5 µg/mL (≈ 1.17 µM); in the assay with Veillonella alcalescens it was 0.5 µg/mL (≈ 1.17 µM); in [9], 32 µg/mL (≈ 74.9 µM). In addition, the MIC is 16 µg/mL (≈ 37.4 µM) in [10]; 64 µg/mL (≈ 150 µM) in the assay on Ser. marcescens; 0.25 µg/mL (≈ 0.585 µM) in the assay with Eubacterium limosum; 64 µg/mL (≈ 150 µM) in assay [11]; ≤ 0.008 µg/mL in the assay with Propionibacterium acnes; 64 µg/mL (≈ 150 µM) in assay [12]. Besides, the MIC with Ent. cloacae P99^+ is > 128 µg/mL; against E. coli TEM 2^+ it was 4 µg/mL (≈ 9.36 µM); in assay [13] it was 16 µg/mL (≈ 37.4 µM); in assay [14], 4 µg/mL (≈ 9.36 µM).

As for `[H]/N=C(/N)N[C@H]1[C@H](O)[C@@H](O)[C@H](O[C@@H]2O[C@@H](C)[C@](O)(C=O)[C@H]2O[C@@H]2O[C@@H](CO)[C@H](O)[C@@H](O)[C@@H]2NC)[C@@H](N/C(N)=N\[H])[C@@H]1O` [Streptomycin, streptomycin, reference compound], the ED50 was 0.38 mg/kg in assay [15] (Test No. 1), 1.41 mg/kg in assay [15] (Test No. 2) and 0.38 mg/kg in assay [15] (Test No. 3).
